The values that follow come from a melting point compilation (Tetko et al.; mined from patent text by program, amines drawn as free bases though some values may be those of a salt).

SMILES strings stand for the structures. A value given as a limit tells only on which side of the number the result lay.

For `CC(C)(C)OC(=O)C(Cl)=CC1C(C(=O)O)C1(C)C` (centres undefined), the melting point – broadly, the temperature of the solid-liquid transition – worked out at 65 °C.

For `COc1cc(SCCCc2ccc(-c3ccc(CCCSc4ccc(OCC(=O)O)c(OC)c4)cc3)cc2)ccc1OCC(=O)O`, the melting point was in the range of 178 to 180 °C.

For `Cc1cc(SCc2ccc(-c3ccc(C(F)(F)F)cn3)cc2)c2c(c1OCC(=O)O)CCC2`, the melting point amounted to 186 °C.

Consider `N#Cc1cc([N+](=O)[O-])ccc1N1CCC(N2CCCCC2)CC1`, for which the melting point was 134 to 135 °C.

`Cc1ccc(C(=O)COC(=O)NC(C)C)cc1`: the melting point fell in the range of 130 to 133 °C.

`Cn1ccnc1Sc1ccc([N+](=O)[O-])cc1` had a melting point of 120 to 121 °C.

`CN1CCC23CC(=O)CCC2C1Cc1ccccc13` (centres undefined) showed a melting point of 164 to 166 °C.

As to `CCNCCCOc1ccc(-c2ccc(C(=O)O)cc2)cc1-c1ccc2c(c1)C(C)(C)CCC2(C)C`, the melting point was 233 °C.

The molecule `CCCCC1(N2CCCC2)CCC(c2[nH]c3ccccc3c2CCc2ccncc2)CC1` (centres undefined) gave a melting point of 165 to 175 °C.

As for `COc1cc(NC(=O)CCCCCN2CCCN(C)CC2)c2nccc(C)c2c1`, the melting point fell in the range of 74 to 77 °C.

For `CCC(=O)OC1C(=O)N(CCNC)c2ccc(C)cc2SC1c1ccc(C)cc1` (centres undefined), the melting point fell in the range of 128 to 132 °C.

For `COc1cc(-c2ccccc2F)c(Cl)cc1C(=O)N1Cc2ccc(C(=O)N(CC(O)CO)CC(O)C(O)CO)n2Cc2ccccc21` (centres undefined), the melting point was in the range of 192 to 194 °C.

Regarding `COC(=O)c1cc(-c2ncco2)ccc1-c1ccccc1S(=O)(=O)Nc1onc(C)c1C`, the melting point was 106 to 112 °C.

Consider `CCOC(=O)c1ncn2c1CNC(=O)c1ccccc1-2`, for which the melting point lay in the range of 248 to 250 °C.

`Fc1ccccc1N1CCN(CCCCNc2ccc(-c3ccccc3)cn2)CC1` came in with a melting point of 95 °C.

As for `CN(C)S(=O)(=O)c1ccc(C(F)(F)F)cc1N`, the melting point fell in the range of 65 to 70 °C.

As to `CC(C)n1c(=O)c(=O)[nH]c2ccccc21`, the melting point was in the range of 227 to 228 °C.

With `CCOC(=O)c1c(SC)nc(C2CC2)n1Cc1ccc(-c2ccccc2S(=O)(=O)NC#N)cc1`, the melting point was > 260 °C.

For the molecule `C[C@H](CNC(=O)c1c(Cl)ccc2nc(N3CCC(C(=O)O)CC3)ccc12)c1ccccc1`, the melting point is 150 to 153 °C.

Take `NNC(=O)CC1(O)c2ccccc2C=Cc2ccccc21`: the melting point lay in the range of 192 to 194 °C.

Regarding `O=C1NCN2CCC1CC2`, the melting point was in the range of 125 to 126 °C.

Take `COC(=O)c1ccc(Cl)cc1NC(=O)Cc1cccc(OC)c1`: the melting point is 144 to 146 °C.

`C=C(CC(Cl)(Cl)Cl)c1cnc(Cl)c(Cl)c1` yielded a melting point of 76 to 77 °C.

Take `Oc1ccc(NCC2Cc3ccccc3C2)cc1`: the melting point was in the range of 106 to 109 °C.

`CCN1CCC(c2ccccc2)=C(C(=O)NC)C1` yielded a melting point of 103 to 105 °C.

In the case of `CC(=O)Nc1cccc(-c2cccc(-n3cnc4cc(C(F)(F)F)ccc43)c2)c1`, the melting point is 118 to 120 °C.

Consider `CN1C(=O)C(NS(=O)(=O)CC23CCC(CC2=O)C3(C)C)N=C(c2ccccc2)c2ccccc21` (centres undefined), for which the melting point lay in the range of 204 to 206 °C.

Take `CCc1c(CCC(=O)OC)ccc2c1OCO2`: the melting point lay within 44 to 46 °C.

Molecule `Cc1nc(NC(=O)CCCc2ccccc2)sc1C(=O)NCc1ccccc1` showed a melting point of 45 to 46 °C.

On to `CCCCC1(CC)COP(=O)(Cc2ccc(N)cc2)OC1` (centres undefined), for which the melting point was 90 to 91 °C.

For the molecule `CCOC(=O)c1cc(OC2COCCC2=O)[nH]n1` (centres undefined), the melting point fell in the range of 121 to 123 °C.

For `Cn1c(=O)ccc2cc(CBr)ccc21`, the melting point is 99 to 100 °C.

In turn, `COC(=O)CCc1cc2cc(Cl)ccc2n1S(=O)(=O)c1cccc(C(F)(F)F)c1` showed a melting point of 98 to 100 °C.

`COc1ccc(-c2c(Cl)c(CN3CCCC3=O)nc3sc4cnccc4c23)cc1OC` gave a melting point of 228 to 230 °C.

In the case of `CCCOc1ccc(C#N)cc1O`, the melting point is 99 °C.

For `CCOP(=O)(OCC)Oc1cc2c(c3ccccc13)Nc1ccccc1S2`, the melting point was 162 to 163 °C.

On to `CCCCCc1c(C(=O)OCC)oc2cc(OC)ccc12`, for which the melting point was in the range of 38 to 41 °C.

For `COc1ccoc1C1OC(=O)NC1=O` (centres undefined), the melting point fell in the range of 102 to 104 °C.

Turning to `CN(c1ccc(Cl)cc1)c1nc(=O)c2ccncc2s1`, the melting point was in the range of 255 to 256 °C.

With `C#CCN(Cc1cc2c(=O)n(C)c(CN(CC)CC)nc2cc1Cl)c1ccc(C(=O)OC(C)(C)C)cc1`, the melting point was 112 to 113 °C.

In the case of `CCCCCCCCCCCCS(=O)(=O)CCOc1ccc(CCC(=O)C(F)(F)F)cc1`, the melting point was 55 to 56 °C.

`CC(C)(C)OC(=O)N[C@@H](Cc1ccccc1)[C@@H](O)CO` registered a melting point of 95 to 96 °C.

`COc1ccc(S(=O)(=O)F)cc1NC(C)=O` came in with a melting point of 162 to 164 °C.

With `CCc1nc2c(C)c(N)c(C)nc2[nH]1`, the melting point fell in the range of 153 to 155 °C.

Take `CN(Cc1ccc(NC(=O)C2CCS(=O)(=O)c3ccc(OCc4ccc(F)cc4)cc3C2)cc1)C1CCOCC1` (centres undefined): the melting point is 232 to 234 °C.

Turning to `Cc1nc2c(OCc3ccccc3F)cccn2c1CC#N`, the melting point was in the range of 172 to 173 °C.

`CC1(CCCN)NC(=O)NC1=O` (centres undefined) yielded a melting point of 183 to 185 °C.

As to `CC(C)C(=O)c1c(C(C)C)nn2ccccc12`, the melting point was in the range of 53 to 55 °C.

As to `C=CCOc1cccc(C(=O)c2ccccc2C(=O)O)c1`, the melting point amounted to 109 °C.

`CC1=C(c2ccc(F)c(F)c2)C(=NO)CC1` came in with a melting point of 155 to 156 °C.

The molecule `C[C@@H]1COC2(CCCC2)N1C(=O)c1ccccc1` yielded a melting point of 65.5 to 67.5 °C.

Take `CCN(CC)C(=O)c1cc(-c2ccc(OC)cc2)ccc1OC`: the melting point is 58 to 60 °C.

`N[C@@H]1C(=O)N[C@@H]1COC(=O)c1ccccc1` (relative stereo) had a melting point of 150 to 151 °C.

The molecule `O=C1c2cc(OCc3ccc4cc(F)ccc4n3)ccc2OCC1Oc1cccnc1` (centres undefined) displayed a melting point of 188 °C.

In turn, `CCCNC(=O)CCn1c(CCC)nc2c(N)nc3ccccc3c21` had a melting point of 157 to 158 °C.

Consider `CCn1c(Nc2cc(Cl)ccc2Cl)nc(C(F)(F)F)cc1=O`, for which the melting point is 167 to 168 °C.

For the molecule `CC(C)(C)c1cc(SC(Sc2cc(C(C)(C)C)c(O)c(C(C)(C)C)c2)c2cc(C(C)(C)C)c(O)c(C(C)(C)C)c2)cc(C(C)(C)C)c1O`, the melting point was in the range of 175 to 177 °C.

In turn, `COc1ccc(C2OCCN2CCNc2ccc(NCCN3CCOC3c3ccc(OC)cc3OC)c3c2C(=O)c2c(O)ccc(O)c2C3=O)c(OC)c1` (centres undefined) returned a melting point of 181 to 185 °C.

Regarding `O=C(O)CN1C(=O)c2cccc3c(Cl)ccc(c23)C1=O`, the melting point stood at 260 °C.

For `Cc1ccc(CCCNCC(O)c2cc3ccccc3o2)cc1` (centres undefined), the melting point lay within 118 to 119 °C.

Molecule `O=C(Nc1cccc2ccccc12)NC(Cc1ccc(C(F)(F)F)cc1)C(O)c1ccc(F)cc1` (centres undefined) came in with a melting point of 222 to 223 °C.

In turn, `COc1cc2c3c(c1)c(=O)c(Cc1cccnc1)cn3-c1cc(Br)ccc1O2` displayed a melting point of 49.7 to 50.9 °C.

Regarding `C[C@H]1CCCC(C)(C)[C@@H]1[C@H](O)c1ccc(C#N)c(C(F)(F)F)c1`, the melting point was 118 to 119 °C.

Molecule `O=C(Nc1ccc(CN2C(=O)[C@H]3CCC[C@H]3Nc3ccccc32)cc1)Oc1ccccc1` (relative stereo) showed a melting point of 183 to 184 °C.

In the case of `CCOC(=O)C(C#N)=CNc1ncccc1Cl`, the melting point was 140 to 142 °C.

Molecule `Cc1cc(OCCCS(C)(=O)=O)cc(C)c1-c1cccc2c1OC[C@H]2Nc1ccc2c(c1)OC[C@H]2CC(=O)O` came in with a melting point of 169 °C.

In turn, `Cc1nc(-c2cn(Cc3ccc(F)cc3)nn2)sc1C(=O)NCc1cccnc1` gave a melting point of 212 to 213 °C.

As to `CC(=O)NCC1CC(c2ccc(-n3ccnc3)c(F)c2)=NO1` (centres undefined), the melting point was 155 to 156 °C.

`O=C(N[C@H](Cc1ccc(C(F)(F)F)o1)[C@@H](O)c1ccc(F)cc1)c1ccc(F)c2ccccc12` (racemic) showed a melting point of 153 to 154 °C.

The molecule `Cc1ccc([N+](=O)[O-])cc1S(=O)(=O)n1ccnc1C` came in with a melting point of 159 to 161 °C.

Turning to `CCCCCCCCCCCC(=O)c1ccc(/C=C/C(=O)OCC)o1`, the melting point lay within 50 to 51 °C.

Consider `CC(C)(C)c1ccc(C(CCCN2CCC(=NO)CC2)OC2CCCCO2)cc1` (centres undefined), for which the melting point lay in the range of 150 to 151 °C.

In turn, `O=[N+]([O-])c1cccc2cncc(Br)c12` came in with a melting point of 172 to 174 °C.

In turn, `Nc1nc2ccccc2n1S(=O)(=O)C=Cc1ccccc1` returned a melting point of 191 °C.

Consider `Fc1cccc(CSc2nnc(-c3ccc4occc4c3)o2)c1`, for which the melting point lay within 112 to 113 °C.

Regarding `COC(=O)C(=O)c1ccc(Cl)cc1`, the melting point is 56 to 57 °C.

The molecule `CC1N=C(c2ccccc2)NC1=O` (centres undefined) had a melting point of 165 °C.

`CC(=O)c1cnccc1-c1c(-c2ccccc2)nn2ccccc12` had a melting point of 159 to 161 °C.

In the case of `COc1ccc(Cc2sc3ccccc3c2-c2ccc(-c3ccc(OC(Cc4ccccc4)C(=O)O)cc3)cc2)c(OC)c1` (centres undefined), the melting point was in the range of 70 to 72 °C.

Molecule `CCOC(=O)c1c(C(F)(F)F)n(C)cc(-c2cc(OC(C)C)c(Cl)cc2F)c1=O` registered a melting point of 170 to 172 °C.

`CCCCCCCCCCCCCCCCCCCCCCOc1ccc(C(=O)OCC)cc1` returned a melting point of 56.5 to 59.5 °C.

For the molecule `CCC(CC)=NNc1cc2c(nn1)CCN(C(=O)C(C)(C)C)C2`, the melting point is 183 to 185 °C.

For `COC(=O)N(CC(=O)O)C(=O)c1c(Br)ccc2c(C(F)(F)F)c(OC)ccc12`, the melting point lay in the range of 164 to 166 °C.

The molecule `Cc1cc(-c2cccc(C(F)(F)F)c2)c2nc(OCC(F)(F)F)nnc2c1` came in with a melting point of 140 to 141 °C.

`COc1ccc(-c2ccccc2NC(N)=S)cc1` showed a melting point of 158 to 159 °C.

The molecule `FC(F)(F)c1cccc(-c2ccnc3ccnn23)c1` displayed a melting point of 103 to 104 °C.

`COc1nc(N)nn1C` had a melting point of 177 to 180 °C.

With `CC(C)CC(CO)NC(=O)C(Cc1cn(NC(=O)OCc2ccccc2)cn1)NC(=O)CCCc1ccccc1` (single isomer, unassigned; (-)), the melting point was in the range of 178 to 180 °C.

In turn, `O=C(O)CCc1cc2cc(Cl)ccc2n1S(=O)(=O)c1ccccn1` had a melting point of 189 °C.
